From publication PMC2752035 (Bioorganic & medicinal chemistry, 2009)

Biological target: sarco/endoplasmic reticulum calcium ATPase (SERCA) (Oryctolagus cuniculus, UniProt P04191)
Experiment: SERCA-catalyzed ATP hydrolysis, coupled PK/LDH NADH oxidation assay

Sequence of sarco/endoplasmic reticulum calcium ATPase (SERCA) (P04191 1-994 isoform P04191-2): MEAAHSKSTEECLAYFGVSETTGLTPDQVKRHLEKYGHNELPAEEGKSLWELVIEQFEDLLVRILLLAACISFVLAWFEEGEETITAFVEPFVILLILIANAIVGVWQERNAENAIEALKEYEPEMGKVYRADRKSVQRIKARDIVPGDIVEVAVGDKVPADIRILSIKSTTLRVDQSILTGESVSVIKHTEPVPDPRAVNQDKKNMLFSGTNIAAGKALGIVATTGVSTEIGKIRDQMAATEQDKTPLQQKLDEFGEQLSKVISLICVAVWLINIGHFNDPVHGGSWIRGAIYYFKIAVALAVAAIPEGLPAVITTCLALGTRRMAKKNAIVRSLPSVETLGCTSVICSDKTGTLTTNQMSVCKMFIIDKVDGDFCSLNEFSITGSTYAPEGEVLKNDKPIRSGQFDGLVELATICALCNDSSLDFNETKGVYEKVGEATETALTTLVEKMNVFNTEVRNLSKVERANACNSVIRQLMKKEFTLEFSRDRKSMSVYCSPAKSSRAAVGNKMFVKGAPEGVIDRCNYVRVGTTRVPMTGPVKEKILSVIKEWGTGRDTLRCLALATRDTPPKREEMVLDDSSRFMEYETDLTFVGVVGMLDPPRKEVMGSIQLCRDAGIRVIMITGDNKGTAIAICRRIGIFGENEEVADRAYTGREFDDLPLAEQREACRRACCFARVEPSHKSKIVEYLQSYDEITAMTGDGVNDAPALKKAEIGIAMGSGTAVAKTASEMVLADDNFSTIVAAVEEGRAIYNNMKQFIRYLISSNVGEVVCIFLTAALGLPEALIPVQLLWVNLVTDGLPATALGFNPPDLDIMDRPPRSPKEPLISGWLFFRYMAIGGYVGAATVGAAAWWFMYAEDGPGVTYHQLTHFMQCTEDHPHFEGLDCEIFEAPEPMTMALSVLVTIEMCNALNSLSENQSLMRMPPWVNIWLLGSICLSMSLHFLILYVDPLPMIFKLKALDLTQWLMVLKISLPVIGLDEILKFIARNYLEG

SERCA inhibition (activity in words): inactive
SMILES: CC(C)(C)OC(=O)NCCCC(=O)Oc1cc(C(C)(C)C)c(OC(=O)CCCNC(=O)OC(C)(C)C)cc1C(C)(C)C [8a]
